# In patent publication US11628198B2, “Methods for prevention and treatment of acute renal injury” (Cornell University, priority 2008, dated 2023):
# Tests used:
# Format in all cases: in vivo, rat
# [1] = tested on: ARI caused by ureteral obstruction (UUO); test: 14-day UUO model: renal histology (trichrome, interstitial volume); conditions: obstructed kidney
# Description: Sprague-Dawley rats underwent unilateral ureteral ligation (UUO) with 4-0 silk suture through a midline abdominal incision under sterile conditions. Ureteral obstruction was carried out by ligating the left ureter at the end of lower ureter, just above the ureterovesical junction.
# SS-31 (1 mg/kg or 3 mg/kg; n=8) was administered intraperitoneally, one day prior to UUO and continuing for 14 days. A separate group of animals was given saline, as a vehicle control (n=16).
# Renal Histology: Trichrome sections of paraffin embedded specimens were examined by a board-certified pathologist (SVS, renal pathology specialist), and fibrosis scored on a scale of 0-+++.
# [2] = tested on: contrast induced nephropathy in diabetic animal model; test: CIN in diabetic (HFD/STZ) rats with iohexol, Experiment 2
# Description: In this experiment, 30 SD rats were fed with high fat diet for 6 weeks, followed by the injection with low dose streptozotocin (30 mg/kg). After 9 more weeks, the rats were used in the contrast induced nephropathy study. The animals were divided into 2 groups with the doses, dosing schedules and study protocol as follows. On day 0, the weight of the animals was determined and glucose and serum samples were collected. On day 1, Scr was assayed and spot urine collection performed. On days 2 and 3, 3 mg/kg SS-31 (Group 1) or a vehicle (Group 2) was administered s.c. 30 min prior to the dye injection (6 mL/kg i.v. tail vein). SS-31 (Group 1) or PBS (Group 2) administration was repeated at 2 h, 1 day, 2, days, 3 days, 4 days, and 5 day post-dye administration. On day 8, serum and urine samples were collected and the rats were euthaniszed to harvest kidneys and vital organs.
# Renal function: Renal function was assessed by determining serum and urinary creatinine using Jiancheng Cr kit (Nanjing, P.R.C) at baseline, 24 h, 3 day and 6 days following contrast dye (Iohexol) administration. The creatinine clearance was calculated based on the Scr, Ucr and Urinary volume. Samples were analyzed by students t-test and differences were considered significant at p<0.05.
# [3] = tested on: radiocontrast dye-induced renal failure; test: CIN, indomethacin/L-NAME model, Experiment 2
# Description: Animal model: The same indomethacin and L-NAME model described above was used in this experiment. In this model, impaired renal function was induced by the administration of indomethacin (8 mg/kg) and L-NAME (10 mg/kg).
# Renal function: Renal function was assessed by determining serum and urinary creatinine using DICT-kit from Bioassays Systems (Hayward, Calif.) at baseline and 26 h following dye administration. Urinary protein concentration was also determined at baseline and 26 h following dye administration by BCA Protein Assay kit (Thermo Scientific, Rockford, Ill.). Samples were analyzed by students t-test and differences were considered significant at p<0.05.
# Renal Histology: Kidneys were fixed in 10% neutral-buffered formalin and embedded in paraffin wax. Three micron sections were stained with hematoxylin-eosin (H&E) and periodic acid-Schiff (PAS) and analyzed by light microscopy by a board certified pathologist.
# [4] = tested on: contrast induced nephropathy in diabetic animal model; test: CIN in diabetic (HFD/STZ) rats with iohexol, Experiment 1
# Description: Animal model: Impaired renal function caused by diabetes is one of the major predisposing factors for contrast induced nephropathy (McCullough, P et al., J. Am. College of Cardiology, 2008, 51, 1419-1428). In this experiment, a total of 57 SD rats were fed with high fat diet for 6 weeks, followed by the injection with low dose streptozotocin (30 mg/kg). After 9 more weeks, the blood glucose, scrum creatinine and Cystatin C was measured. Based on the following selection criteria: Scr>250 μM, Cystatin C>750 ng/ml and blood glucose>=[…], 20 rats were selected to proceed with the contrast induced nephropathy study.
# The animals were divided into 2 groups. Group 1 rats were fed administered iohexol and SS-31; Group 2 rats were administered iohexol and a control vehicle. On day 1, serum samples were collected from the rats in each group and total protein in urine was measured using a Bradford assay. On days 2 and 3, 3 mg/kg SS-31 (Group 1) or a vehicle (Group 2) was administered s.c. 30 min prior to the dye injection (6 mL/kg i.v. tail vein). SS-31 (Group 1) or PBS (Group 2) administration was repeated at both 2 h and 24 h post-dye administration. Serum and urine samples were collected at days 4 and 5. The rats were euthaniszed on day 5 to harvest kidneys and vital organs. Samples were analyzed by students t-test and differences were considered significant at p<0.05.
# Renal function: Renal function was assessed by determining serum and urinary creatinine using Jiancheng Cr kit (Nanjing, P.R.C) at baseline, 48 h and 72 h following dye administration. The creatinine clearance was calculated based on the Scr, Ucr and Urinary volume. Urinary protein concentration was determined by Bradford Protein Assay kit (Sigma, St. Louis, Mo.). The Cystatin C was measured Westang Rat Cystatin C kit (Shanghai, P.R.C.)
# [5] = 26 h post contrast dye vs baseline
substance,measurement,setting,value
D-Arg-2′6′Dmt-Lys-Phe-NH2 [SS-31],"trichrome staining (fibrosis), cortex",[1],0-trace
same,"trichrome staining (fibrosis), medulla",[1],tr− 1+
same,medullary interstitial volume,[1]; 1 mg/kg i.p. daily,54.9±2.3%
same,medullary interstitial volume,[1]; higher dose,also effective
same,GFR,[2]; Baseline,159.2±25.1 μl/min/100 g
same,Scr,[2]; Baseline,214.6 ± 15.4 µmol/L
same,U protein,[2]; Baseline,5.4 ± 1.1 mg/4 h
same,U vol,[2]; Baseline,18.1 ± 4.4 mL
same,Ucr,[2]; Baseline,4182.5 ± 699.8 µmol/L
same,GFR,[2]; T1 (24 h post dye),159.9±9 μl/min/100 g
same,Scr,[2]; T1 (24 h post dye),168.6 ± 21.9 µmol/L
same,U protein,[2]; T1 (24 h post dye),3.6 ± 0.8 mg/4 h
same,U vol,[2]; T1 (24 h post dye),15.2 ± 4.3 mL
same,Ucr,[2]; T1 (24 h post dye),4488.9 ± 861.6 µmol/L
same,GFR,[2]; T2 (3 day post dye),100.9 ± 16.7 μl/min/100 g
same,Scr,[2]; T2 (3 day post dye),236.2 ± 26.6 µmol/L
same,U protein,[2]; T2 (3 day post dye),4.3 ± 0.9 mg/4 h
same,U vol,[2]; T2 (3 day post dye),12.8 ± 3.6 mL
same,Ucr,[2]; T2 (3 day post dye),4744.8 ± 1350.6 µmol/L
same,GFR,[2]; T3 (6 days post dye),121.5 ± 9.1 μl/min/100 g
same,Scr,[2]; T3 (6 days post dye),175.3 ± 25.9 µmol/L
same,U protein,[2]; T3 (6 days post dye),2.4 ± 0.4 mg/4 h
same,U vol,[2]; T3 (6 days post dye),9.6 ± 2.3 mL
same,Ucr,[2]; T3 (6 days post dye),4030.7 ± 620 µmol/L
same,SCr,[3]; 1 day (26 h post dye),0.73 ± 0.04 mg/dL
same,U protein BCA,[3]; 1 day (26 h post dye),11.76 ± 2.71 mg/mL
same,Ucr,[3]; 1 day (26 h post dye),38.12 ± 8.19 mg/dL
same,Scr increase,[3]; [5],9%
same,urinary protein concentration increase,[3]; [5],1.7 fold
same,rats protected from contrast dye induced nephropathy (Scr increase less than 25% at 26 h post dye),[3]; 26 h post dye,Five out of seven
same,SCr,[3]; Baseline,0.67 ± 0.09 mg/dL
same,U protein BCA,[3]; Baseline,4.28 ± 1.15 mg/mL
same,Ucr,[3]; Baseline,15.54 ± 3.87 mg/dL
same,PAS staining of kidney,[3]; dye-injected,intact brush borders and normal glomeruli
same,Cystatin C,[4]; Baseline,708.6 ± 51.3 ng/mL
same,GFR,[4]; Baseline,140.0 ± 11.1 μl/min/100 g
same,Scr,[4]; Baseline,305.7 ± 15.1 µmol/L
same,U protein,[4]; Baseline,4.83 ± 1.03 mg/4 h
same,U vol,[4]; Baseline,15.4 ± 2.6 mL
same,Ucr,[4]; Baseline,3187.0 ± 196.9 µmol/L
same,Cystatin C,[4]; T1 (48 h post dye),1008.1 ± 46.4 ng/mL
same,GFR,[4]; T1 (48 h post dye),149.3 ± 15.6 μl/min/100 g
same,Scr,[4]; T1 (48 h post dye),285.4 ± 12.0 µmol/L
same,U protein,[4]; T1 (48 h post dye),4.71 ± 0.60 mg/4 h
same,U vol,[4]; T1 (48 h post dye),17.4 ± 1.6 mL
same,Ucr,[4]; T1 (48 h post dye),2816 ± 163.6 µmol/L
same,Cystatin C,[4]; T2 (72 h post dye),1303.6 ± 147.1 ng/mL
same,GFR,[4]; T2 (72 h post dye),162.7 ± 18.7 μl/min/100 g
same,Scr,[4]; T2 (72 h post dye),295.7 ± 20.6 µmol/L
same,U protein,[4]; T2 (72 h post dye),3.59 ± 1.0 mg/4 h
same,U vol,[4]; T2 (72 h post dye),20.5 ± 2.3 mL
same,Ucr,[4]; T2 (72 h post dye),2675.4 ± 100.8 µmol/L
